Results: PMC11040327 (RSC Advances, 2024)
Where two headings read alike, the source gives them in different places.

Tests used:
HCT-116 cells [1] = assay: MTT cytotoxicity assay against HCT-116 cells; format: cell-based
VEGFR2 = VEGFR2 (Homo sapiens, UniProt P35968); assay: VEGFR2 kinase inhibition assay; format: biochemical; settings: for inhibition at 10 µM: read-out: VEGFR2 % Of inhibition at [10 μM], 10 μM compound
HCT-116 cells [2] = assay: Annexin V/PI flow cytometry for apoptosis in HCT-116 cells; format: cell-based; settings: treated at IC50 for 48 h
[3] = Homo sapiens, HCT-116, 48 h, read-out: IC50 (μM) ± SD, cytotoxicity against HCT-116 cells, HCT-116 cells, MTT assay, 48 h, three independent trials

Sequence of VEGFR2 (P35968 20-1356): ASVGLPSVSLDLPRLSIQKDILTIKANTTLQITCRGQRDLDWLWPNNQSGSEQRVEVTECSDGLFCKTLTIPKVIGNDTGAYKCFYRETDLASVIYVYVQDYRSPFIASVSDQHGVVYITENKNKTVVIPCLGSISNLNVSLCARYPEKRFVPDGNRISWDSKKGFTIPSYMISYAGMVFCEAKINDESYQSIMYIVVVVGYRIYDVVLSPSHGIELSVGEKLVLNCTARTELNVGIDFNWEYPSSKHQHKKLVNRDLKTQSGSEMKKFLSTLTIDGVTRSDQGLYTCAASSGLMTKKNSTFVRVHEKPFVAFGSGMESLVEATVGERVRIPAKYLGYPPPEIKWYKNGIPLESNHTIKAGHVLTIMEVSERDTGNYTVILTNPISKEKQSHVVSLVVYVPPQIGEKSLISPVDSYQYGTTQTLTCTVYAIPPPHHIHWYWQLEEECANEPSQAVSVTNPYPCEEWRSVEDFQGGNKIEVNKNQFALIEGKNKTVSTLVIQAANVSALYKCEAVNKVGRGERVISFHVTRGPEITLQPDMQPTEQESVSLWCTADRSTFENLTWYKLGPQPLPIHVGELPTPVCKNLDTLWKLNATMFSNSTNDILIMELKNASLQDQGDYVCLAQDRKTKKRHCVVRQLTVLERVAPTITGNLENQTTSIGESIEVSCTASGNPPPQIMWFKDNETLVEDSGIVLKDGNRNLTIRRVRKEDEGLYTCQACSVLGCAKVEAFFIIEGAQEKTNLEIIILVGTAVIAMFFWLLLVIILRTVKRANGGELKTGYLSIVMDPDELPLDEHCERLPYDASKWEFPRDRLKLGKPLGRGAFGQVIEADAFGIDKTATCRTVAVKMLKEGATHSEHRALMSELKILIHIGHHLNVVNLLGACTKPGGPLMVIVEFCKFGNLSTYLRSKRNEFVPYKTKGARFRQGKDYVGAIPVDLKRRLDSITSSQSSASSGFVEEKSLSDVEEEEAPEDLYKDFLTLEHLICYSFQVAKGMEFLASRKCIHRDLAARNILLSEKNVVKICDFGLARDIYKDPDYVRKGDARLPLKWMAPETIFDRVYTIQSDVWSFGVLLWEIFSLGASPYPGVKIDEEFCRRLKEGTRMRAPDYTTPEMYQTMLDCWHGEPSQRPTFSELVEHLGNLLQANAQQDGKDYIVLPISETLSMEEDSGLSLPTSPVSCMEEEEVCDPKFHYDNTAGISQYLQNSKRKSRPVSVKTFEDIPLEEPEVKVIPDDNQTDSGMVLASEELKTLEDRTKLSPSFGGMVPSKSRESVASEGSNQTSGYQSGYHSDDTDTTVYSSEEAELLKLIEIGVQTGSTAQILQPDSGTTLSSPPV

Compound	IC50 (HCT-116 cells [1]; [3])	other results
O=C(CCn1nc(Cc2ccccc2)c2ccccc2c1=O)N1CCOCC1 [Compound 7b, 4-benzyl-2-(3-morpholino-3-oxopropyl) phthalazin-1(2H)-one]	24.3 ± 1.5 µM	–
NNC(=O)CCn1nc(Cc2ccccc2)c2ccccc2c1=O [Compound 5, 3-(4-benzyl-1-oxophthalazin-2(1H)-yl) propanehydrazide]	13.8 ± 0.2 µM	–
CNC(=O)c1cc(Oc2ccc(NC(=O)Nc3ccc(Cl)c(C(F)(F)F)c3)cc2)ccn1 [Sorafenib, reference compound]	2.93 µM	IC50 (HCT-116 cells [1]; read-out: IC50 (μM) ± SD, cytotoxicity against HCT-116 cells, HCT-116 cells, MTT assay, 48 h, three independent trials): 3.23 ± 0.03 µM
O=C(CCn1nc(Cc2ccccc2)c2ccccc2c1=O)NCC(=O)N/N=C\c1ccc([N+](=O)[O-])cc1 [Compound 13a, (Z)-3-(4-benzyl-1-oxophthalazin-2(1H)-yl)-N-(2-(2-(4-nitrobenzylidene) hydrazinyl)-2-oxoethyl)propanamide]	45.7 ± 1.8 µM	–
C=CCNC(=O)CCn1nc(Cc2ccccc2)c2ccccc2c1=O [Compound 7a, N-allyl-3-(4-benzyl-1-oxophthalazin-2(1H)-yl)propanamide]	34.8 ± 1.9 µM	–
O=C(CCn1nc(Cc2ccccc2)c2ccccc2c1=O)N1CCCCC1 [Compound 7d, 4-benzyl-2-(3-oxo-3-(piperidin-1-yl)propyl) phthalazin-1(2H)-one]	–	inhibition at 10 µM (VEGFR2): 97.6%; apoptosis induction, fold versus untreated cells (HCT-116 cells [2]): 23.6 fold
COc1ccc(/C=N\NC(=O)CNC(=O)CCn2nc(Cc3ccccc3)c3ccccc3c2=O)cc1 [Compound 13c, (Z)-3-(4-benzyl-1-oxophthalazin-2(1H)-yl)-N-(2-(2-(4-methoxybenzylidene) hydrazinyl)-2-oxoethyl)propanamide]	0.64 ± 0.05 µM	VEGFR2 % Of inhibition at [10 μM] (VEGFR2; 10 μM compound, 10 µM): 96.4 ± 2.8%; IC50 (VEGFR2; VEGFR2 IC50 [nM] ± SD, five concentrations, three replicates): 19.8 ± 0.6 nM; inhibition at 10 µM (VEGFR2): 95.2%
CCCCNC(=O)CCn1nc(Cc2ccccc2)c2ccccc2c1=O [Compound 7f, 3-(4-benzyl-1-oxophthalazin-2(1H)-yl)-N-butylpropanamide]	18.8 ± 0.6 µM	–
